In article PMC7529758, “Over-activation of a nonessential bacterial protease DegP as an antibiotic strategy” (Communications Biology, 2020):
Values after ≈ are worked out from the molar mass of the structure shown. *1 amine or outer side, *2 acyl side, *3 side chain or, on linkers, in order; H or OH if unused. Where a SMILES comes first, the peptide text is derived from it. Bridges are numbered along the chain shown (N, C = ends). Roman numbers before positions name the chains, in order. TBMB = c1c(C[*:1])cc(C[*:3])cc1C[*:2]

Experiments:
DegP^WT = test: DegP activation assay with the reporter peptide; format: biochemical, Escherichia coli; settings: reporter 100 μM
Description: DegP activation experiments were performed as previously described[14],[22]. All the in vitro assays were performed in a buffer containing 50 mM sodium phosphate (pH 8) and 100 mM NaCl. Two-fold serial dilutions of the activator were incubated with DegP^WT (1, 3, or 10 μM) for 5 min. After incubation, the reporter peptide (Abz-[…]^NO2D; Abz, 2-aminobenzoic acid; Y^NO2, 3-nitrotyrosine; 100 μM final) was added. DegP activation was monitored by increased fluorescence by using a micro-plate reader (excitation 320 nm, emission 430 nm; Infinite F200pro, Tecan). Assays were performed in triplicates.

DegP^S210A [1] = target: T1, DegP^S210A (Escherichia coli, UniProt P0C0V0, C83S/C95S/N322C/S236A); test: FRET assay of DegP cage assembly; format: biochemical; settings: FRET of donor- and acceptor-labeled DegP variants
T1 construct: pET22b-degP(full length; C57S/C69S/N296C/S210A)_6His; 6His (C); made in house; host or cells: E. coli (inferred from the pET plasmid)
T1 sequence (P0C0V0 27-474 C83S/C95S/S236A/N322C): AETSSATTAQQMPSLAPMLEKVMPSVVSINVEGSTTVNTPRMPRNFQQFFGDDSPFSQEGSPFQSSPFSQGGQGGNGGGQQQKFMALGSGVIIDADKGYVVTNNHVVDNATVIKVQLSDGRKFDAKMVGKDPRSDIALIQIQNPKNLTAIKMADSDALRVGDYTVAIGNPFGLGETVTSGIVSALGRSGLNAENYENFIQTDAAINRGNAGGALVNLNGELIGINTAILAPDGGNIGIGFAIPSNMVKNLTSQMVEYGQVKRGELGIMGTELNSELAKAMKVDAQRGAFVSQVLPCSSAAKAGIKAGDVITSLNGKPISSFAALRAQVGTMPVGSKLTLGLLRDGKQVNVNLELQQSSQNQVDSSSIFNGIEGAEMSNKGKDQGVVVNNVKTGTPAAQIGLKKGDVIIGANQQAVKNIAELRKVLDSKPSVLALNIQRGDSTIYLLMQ
Description: Fluorescence resonance energy transfer (FRET) assay was performed as previously described[14],[22]. Equimolar amounts of fluorescence donor- and acceptor-labeled DegP^S210A (total 0.1, 1 or 3 μM) was mixed in a buffer containing 50 mM sodium phosphate (pH 8) and 100 mM NaCl. Two-fold serial dilutions of activators were added to the DegP mixtures. Alexa Fluor 555 C2-maleinide and 647 C2-maleinide (life technologies) were used as fluorescence dyes. Cage assembly of DegP was monitored by increased FRET ratio using the micro-plate reader (excitation 520 nm, emission 570 or 670 nm, Infinite M200pro, Tecan). Assays were performed in triplicates.

DegP^S210A [2] = target: T2, DegP^S210A (Escherichia coli, UniProt P0C0V0, S236A); test: Fluorescence anisotropy binding assay
T2 construct: pET22b-degP(full length; S210A)_6His; 6His (C); made in house
T2 sequence (P0C0V0 27-474 S236A): as the sequence (P0C0V0 27-474 C83S/C95S/S236A/N322C) above, with S57C, S69C, C296N counted along it
Description: Fluorescence anisotropy assay was performed as previously described[14],[22]. Two-fold serial dilutions of activators were mixed with a fluorescence-labeled peptide (^flC18–58 or ^fl45–58, 50 nM; Oregon Green 488 maleimide, Invitrogen) and DegP^S210A (10 μM for ^flC18–58; 80 μM for ^fl45–58). Anisotropy was monitored by using a micro-plate reader (excitation 485 nm, emission 535 nm, Infinite F200pro, Tecan). The assay was performed in triplicates.

E. coli imp4213 = test: microbe, parasite or virus in culture; format: cell-based, Escherichia coli; settings: imp4213, 12 h, LB
Description: (§1) The susceptibility of E. coli to activators was analyzed by determining the MICs. Two-fold serial dilutions of activators in LB broth were added to bacteria (OD600 = 0.1) in 96-well plates. Plates were incubated with shaking at 30 or 42 °C. After 12 h of incubation, the MIC was defined as the lowest concentration of the activator to inhibit the growth of bacteria by using a micro-plate reader (Absorbance 600 nm, Infinite M200pro, Tecan). The assay was performed in triplicates.

[3] = test system: wild-type Escherichia coli (W3110); test: Growth (OD600) of wild-type cells; format: cell-based; settings: LB; OD600 after 12 h; 42 °C
Description: as §1

E.coli imp4213 strain = format: cell-based, Escherichia coli; settings: log-phase cells; 2x MIC; both 30 °C and 42 °C; CFU
Description: Time-kill experiment was performed by counting the viable bacteria at each time point. The E.coli imp4213 strain was cultured with streptomycin overnight and diluted 1:100 in fresh LB broth. When the OD600 value became 0.01, the activator was added at 2x MIC. The sample was incubated with shaking (180 rpm) at 30 °C or 42 °C, and aliquots were taken after 0, 1, 2, 4, 6, 8, 10, or 12 h. These aliquots were serially diluted (ten-fold) and plated on LB agar plates for colony counts. Experiments were performed in triplicates. The kill curves were plotted with the CFU/mL against time.
Experiments with cells in the stationary phase, however, were performed without dilution of the overnight culture.

CC(C)C[C@H](NC(=O)[C@H](CCCCN)NC(=O)[C@H](CCCNC(=N)N)NC(=O)[C@H](Cc1ccc(O)cc1)NC(=O)[C@@H](N)CSCc1cc(CSC[C@H](N)C(=O)N[C@@H](Cc2ccc(O)cc2)C(=O)N[C@@H](CCCNC(=N)N)C(=O)N[C@@H](CCCCN)C(=O)N[C@@H](CC(C)C)C(=O)O)cc(CSC[C@H](N)C(=O)N[C@@H](Cc2ccc(O)cc2)C(=O)N[C@@H](CCCNC(=N)N)C(=O)N[C@@H](CCCCN)C(=O)N[C@@H](CC(C)C)C(=O)O)c1)C(=O)O [TMB_CYRKL] (I: H-CYRKL-OH / II: H-CYRKL-OH / III: H-CYRKL-OH; linker I:1-II:1-III:1 via TBMB)
increase of the cleavage rate compared with Lpp^+Leu and TMB_CKYRKL (DegP^WT): at least ten times more | activation of DegP (cleavage rate of the reporter peptide) (DegP^WT; DegP 1 or 10 μM, increasing concentrations): activation was observed | assembly of DegP cages (DegP^S210A [1]): assemble DegP cages | concentrations that enhance binding of fl18-58 (DegP^S210A [2]; DegPS210A 10 μM): 5~ 40 µM | concentrations that interrupt the interaction of fl18-58 (DegP^S210A [2]; DegPS210A 10 μM): > 40 µM | concentrations that enhance binding of fl45-58 (DegP^S210A [2]; DegPS210A 80 μM): 10~ 80 µM | concentrations that interrupt the interaction of fl45-58 (DegP^S210A [2]; DegPS210A 80 μM): > 80 µM | MIC (E. coli imp4213; 30 °C): 320 µM (≈ 691 µg/mL) | MIC (E. coli imp4213; Fig. 3a and Supplementary Fig. 6b (30 °C and 42 °C)): 320 to 640 µM | growth of wild-type E. coli W3110 [3]: did not inhibit growth | reduction of the number of viable cells (E.coli imp4213 strain): two orders of magnitude
